Results from ChEMBL document CHEMBL1133363, “Discovery and evaluation of potent, tyrosine-based alpha4beta1 integrin antagonists” (Bioorg Med Chem Lett, 2000).
Square brackets hold non-standard residues; d marks the D form. Peptide text beside a SMILES is read from it. Thz = O=C(O)[C@@H]1CSCN1

Tested on: not listed separately
Assay: Half life stability of compound was evaluated in rat plasma
Assay type: ADME, organism-based

SMILES | half-life [h]
CC(=O)N1CSC[C@@H]1C(=O)N[C@@H](Cc1ccc(OC(=O)C23CC4CC(CC(C4)C2)C3)cc1)C(=O)O | 2.3
CC(=O)N1CSC[C@@H]1C(=O)N[C@@H](Cc1ccc(OC(=O)c2ccccc2)cc1)C(=O)O | 1.6
CC(=O)N1CSC[C@@H]1C(=O)N[C@@H](Cc1ccc(OCc2c(Cl)cccc2Cl)cc1)C(=O)O | > 12
CC(=O)N1CSC[C@@H]1C(=O)N[C@@H](Cc1ccc(OCc2ccccc2)cc1)C(=O)O | > 12
CC(=O)N1CSC[C@@H]1C(=O)N[C@@H](Cc1ccc(OC(=O)c2c(Cl)cccc2Cl)cc1)C(=O)O | > 12

Biological target: Intercellular adhesion molecule (ICAM-1), Integrin alpha-L/beta-2 (Homo sapiens, UniProt P05107+P05362+P20701)
Assay: Inhibition of alphaL-beta2 mediated cell adhesion
Assay type: protein-complex assay

SMILES | IC50 [nM]
CC(=O)N1CSC[C@@H]1C(=O)N[C@@H](Cc1ccc(OCc2c(Cl)cccc2Cl)cc1)C(=O)O | > 200000

Biological target: Integrin alpha-M/beta-2 (Homo sapiens, UniProt P05107+P11215)
Sequence (P05107 23-769 limits assumed, other chains not shown): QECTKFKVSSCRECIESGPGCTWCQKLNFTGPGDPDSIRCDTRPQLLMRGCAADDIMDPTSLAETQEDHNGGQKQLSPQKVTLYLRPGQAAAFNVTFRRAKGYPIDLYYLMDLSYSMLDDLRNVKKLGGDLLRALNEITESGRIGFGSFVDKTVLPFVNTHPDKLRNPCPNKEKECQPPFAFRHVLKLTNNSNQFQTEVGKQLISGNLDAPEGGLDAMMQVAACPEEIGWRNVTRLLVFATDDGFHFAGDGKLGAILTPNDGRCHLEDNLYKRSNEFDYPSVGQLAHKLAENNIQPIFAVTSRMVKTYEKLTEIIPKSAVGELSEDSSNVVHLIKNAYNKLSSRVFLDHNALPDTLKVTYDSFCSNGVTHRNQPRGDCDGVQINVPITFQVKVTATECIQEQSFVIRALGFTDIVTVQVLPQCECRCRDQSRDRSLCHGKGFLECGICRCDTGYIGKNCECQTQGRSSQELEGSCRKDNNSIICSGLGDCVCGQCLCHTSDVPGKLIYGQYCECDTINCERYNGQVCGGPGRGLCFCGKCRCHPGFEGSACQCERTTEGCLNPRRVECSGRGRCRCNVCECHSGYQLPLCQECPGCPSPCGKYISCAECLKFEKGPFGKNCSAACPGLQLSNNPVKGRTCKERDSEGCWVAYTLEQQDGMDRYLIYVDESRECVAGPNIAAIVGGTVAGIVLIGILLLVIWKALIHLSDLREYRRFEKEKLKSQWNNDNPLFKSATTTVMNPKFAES
Assay: Inhibition of alphaM-beta2 mediated cell adhesion
Assay type: protein-complex assay

SMILES | IC50 [nM]
CC(=O)N1CSC[C@@H]1C(=O)N[C@@H](Cc1ccc(OCc2c(Cl)cccc2Cl)cc1)C(=O)O | > 400000

Biological target: Integrin alpha-V/beta-3 (Homo sapiens, UniProt P05106+P06756)
Sequence (P05106 27-788 limits assumed): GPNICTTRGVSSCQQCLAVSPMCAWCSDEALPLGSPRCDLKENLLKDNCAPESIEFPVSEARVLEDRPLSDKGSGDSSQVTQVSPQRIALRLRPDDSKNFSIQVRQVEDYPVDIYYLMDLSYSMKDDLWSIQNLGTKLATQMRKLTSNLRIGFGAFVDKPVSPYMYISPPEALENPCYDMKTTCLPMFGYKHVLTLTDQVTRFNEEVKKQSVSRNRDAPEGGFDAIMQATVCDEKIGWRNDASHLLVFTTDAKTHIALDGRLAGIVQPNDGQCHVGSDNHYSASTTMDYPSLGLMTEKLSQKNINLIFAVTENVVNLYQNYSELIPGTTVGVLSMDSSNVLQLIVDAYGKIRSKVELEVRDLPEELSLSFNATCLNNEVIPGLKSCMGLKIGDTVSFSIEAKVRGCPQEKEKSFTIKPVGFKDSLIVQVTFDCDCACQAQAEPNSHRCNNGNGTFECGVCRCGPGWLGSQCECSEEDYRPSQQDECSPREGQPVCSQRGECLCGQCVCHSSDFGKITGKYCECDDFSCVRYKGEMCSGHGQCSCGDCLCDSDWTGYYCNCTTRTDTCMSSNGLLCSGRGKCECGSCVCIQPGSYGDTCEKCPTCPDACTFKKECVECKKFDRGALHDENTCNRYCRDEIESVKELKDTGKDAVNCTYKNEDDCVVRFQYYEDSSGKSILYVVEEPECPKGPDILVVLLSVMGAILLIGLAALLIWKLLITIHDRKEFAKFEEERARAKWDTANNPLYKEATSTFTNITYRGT
Sequence (P06756 31-889 limits assumed): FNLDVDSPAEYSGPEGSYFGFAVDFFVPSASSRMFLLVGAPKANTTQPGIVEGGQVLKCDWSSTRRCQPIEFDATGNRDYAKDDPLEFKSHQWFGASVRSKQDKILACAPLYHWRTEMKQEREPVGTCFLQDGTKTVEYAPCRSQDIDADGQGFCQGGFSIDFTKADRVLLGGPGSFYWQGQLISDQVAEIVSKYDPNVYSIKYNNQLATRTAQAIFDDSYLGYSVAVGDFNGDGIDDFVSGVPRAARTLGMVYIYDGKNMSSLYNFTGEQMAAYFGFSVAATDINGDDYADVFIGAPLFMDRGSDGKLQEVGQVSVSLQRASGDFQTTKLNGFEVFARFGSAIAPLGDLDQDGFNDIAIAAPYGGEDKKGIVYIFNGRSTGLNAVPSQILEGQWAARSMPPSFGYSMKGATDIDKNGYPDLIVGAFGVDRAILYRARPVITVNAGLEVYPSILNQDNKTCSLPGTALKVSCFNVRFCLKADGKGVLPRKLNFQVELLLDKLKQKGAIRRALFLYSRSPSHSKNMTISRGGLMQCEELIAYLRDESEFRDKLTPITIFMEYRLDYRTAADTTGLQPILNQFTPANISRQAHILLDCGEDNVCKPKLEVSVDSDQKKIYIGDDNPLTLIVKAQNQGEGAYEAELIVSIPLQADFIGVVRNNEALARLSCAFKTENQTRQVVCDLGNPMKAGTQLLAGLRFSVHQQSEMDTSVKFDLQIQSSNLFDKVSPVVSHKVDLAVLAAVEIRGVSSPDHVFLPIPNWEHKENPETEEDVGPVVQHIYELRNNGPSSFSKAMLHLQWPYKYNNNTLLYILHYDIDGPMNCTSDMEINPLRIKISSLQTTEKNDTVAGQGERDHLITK
Sequence (P06756 891-1048 limits assumed): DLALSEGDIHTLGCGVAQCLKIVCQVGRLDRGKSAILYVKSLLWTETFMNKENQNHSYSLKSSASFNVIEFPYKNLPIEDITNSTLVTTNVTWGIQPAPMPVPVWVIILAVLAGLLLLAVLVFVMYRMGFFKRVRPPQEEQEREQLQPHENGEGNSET
Assay: Inhibition of alphaV-beta3 mediated cell adhesion
Assay type: protein-complex assay

SMILES | IC50 [nM]
CC(=O)N1CSC[C@@H]1C(=O)N[C@@H](Cc1ccc(OCc2c(Cl)cccc2Cl)cc1)C(=O)O | > 800000

Biological target: T1, Integrin alpha-4/beta-7 (Homo sapiens, UniProt P13612+P26010)
T1 sequence (P13612 whole entry): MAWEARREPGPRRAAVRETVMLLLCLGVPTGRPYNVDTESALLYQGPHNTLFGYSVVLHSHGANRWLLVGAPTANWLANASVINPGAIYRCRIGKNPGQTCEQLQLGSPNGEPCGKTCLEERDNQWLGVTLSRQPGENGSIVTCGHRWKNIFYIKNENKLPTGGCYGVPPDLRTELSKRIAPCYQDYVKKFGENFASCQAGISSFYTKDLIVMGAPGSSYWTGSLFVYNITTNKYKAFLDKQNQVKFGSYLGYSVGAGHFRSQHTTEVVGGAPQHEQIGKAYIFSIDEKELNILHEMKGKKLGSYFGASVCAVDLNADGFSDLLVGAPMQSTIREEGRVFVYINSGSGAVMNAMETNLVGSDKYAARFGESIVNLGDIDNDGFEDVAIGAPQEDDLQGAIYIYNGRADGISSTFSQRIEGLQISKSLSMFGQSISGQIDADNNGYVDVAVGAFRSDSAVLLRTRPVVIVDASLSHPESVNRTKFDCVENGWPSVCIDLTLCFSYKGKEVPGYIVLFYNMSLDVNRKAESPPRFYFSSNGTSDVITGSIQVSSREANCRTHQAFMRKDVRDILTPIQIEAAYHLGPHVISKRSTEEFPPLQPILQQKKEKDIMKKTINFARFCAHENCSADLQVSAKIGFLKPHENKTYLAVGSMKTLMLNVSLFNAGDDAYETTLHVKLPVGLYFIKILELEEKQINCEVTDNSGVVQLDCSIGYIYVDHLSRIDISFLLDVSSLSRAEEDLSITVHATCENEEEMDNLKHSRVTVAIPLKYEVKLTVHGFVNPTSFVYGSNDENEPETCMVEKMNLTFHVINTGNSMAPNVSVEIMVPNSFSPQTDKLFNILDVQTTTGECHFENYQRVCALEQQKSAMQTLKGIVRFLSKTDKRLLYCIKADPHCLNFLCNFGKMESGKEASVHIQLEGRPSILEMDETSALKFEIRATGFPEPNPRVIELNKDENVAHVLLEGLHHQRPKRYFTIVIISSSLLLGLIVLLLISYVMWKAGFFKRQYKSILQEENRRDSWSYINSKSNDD
T1 sequence (P26010 whole entry): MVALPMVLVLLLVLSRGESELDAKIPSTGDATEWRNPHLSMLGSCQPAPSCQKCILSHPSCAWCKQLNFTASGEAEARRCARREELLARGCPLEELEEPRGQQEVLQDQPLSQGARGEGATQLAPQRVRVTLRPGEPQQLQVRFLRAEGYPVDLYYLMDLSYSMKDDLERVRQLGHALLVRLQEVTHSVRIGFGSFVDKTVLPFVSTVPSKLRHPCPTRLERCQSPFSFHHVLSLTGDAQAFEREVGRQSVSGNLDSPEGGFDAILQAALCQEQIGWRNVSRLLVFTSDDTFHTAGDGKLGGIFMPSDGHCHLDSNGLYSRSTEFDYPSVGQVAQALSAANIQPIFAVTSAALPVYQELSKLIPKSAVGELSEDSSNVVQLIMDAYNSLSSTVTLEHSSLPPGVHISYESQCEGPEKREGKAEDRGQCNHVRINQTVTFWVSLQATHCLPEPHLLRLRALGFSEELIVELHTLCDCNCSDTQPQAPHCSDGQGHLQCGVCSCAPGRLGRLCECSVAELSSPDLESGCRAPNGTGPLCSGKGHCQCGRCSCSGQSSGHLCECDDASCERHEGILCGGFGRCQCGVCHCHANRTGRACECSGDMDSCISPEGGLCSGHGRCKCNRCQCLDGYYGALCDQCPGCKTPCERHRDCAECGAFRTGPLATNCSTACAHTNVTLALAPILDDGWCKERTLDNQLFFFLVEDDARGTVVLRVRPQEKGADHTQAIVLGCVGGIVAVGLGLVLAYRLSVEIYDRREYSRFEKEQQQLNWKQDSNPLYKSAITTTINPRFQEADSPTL
Assay: Inhibition of alpha4-beta7 integrin mediated cell adhesion
Assay type: protein-complex assay

SMILES | IC50 [nM]
CC(=O)N1CSC[C@@H]1C(=O)N[C@@H](Cc1ccc(OCc2c(Cl)cccc2Cl)cc1)C(=O)O | 190

Biological target: Integrin alpha-5/beta-1 (Homo sapiens, UniProt P05556+P08648)
Assay: Inhibition of alpha5-beta1 integrin mediated cell adhesion
Assay type: protein-complex assay

SMILES | IC50 [nM]
CC(=O)N1CSC[C@@H]1C(=O)N[C@@H](Cc1ccc(OCc2c(Cl)cccc2Cl)cc1)C(=O)O | > 800000

Biological target: T2, Integrin alpha-4/beta-1 (Homo sapiens, UniProt P05556+P13612)
T2 sequence (P05556 whole entry, one chain of several): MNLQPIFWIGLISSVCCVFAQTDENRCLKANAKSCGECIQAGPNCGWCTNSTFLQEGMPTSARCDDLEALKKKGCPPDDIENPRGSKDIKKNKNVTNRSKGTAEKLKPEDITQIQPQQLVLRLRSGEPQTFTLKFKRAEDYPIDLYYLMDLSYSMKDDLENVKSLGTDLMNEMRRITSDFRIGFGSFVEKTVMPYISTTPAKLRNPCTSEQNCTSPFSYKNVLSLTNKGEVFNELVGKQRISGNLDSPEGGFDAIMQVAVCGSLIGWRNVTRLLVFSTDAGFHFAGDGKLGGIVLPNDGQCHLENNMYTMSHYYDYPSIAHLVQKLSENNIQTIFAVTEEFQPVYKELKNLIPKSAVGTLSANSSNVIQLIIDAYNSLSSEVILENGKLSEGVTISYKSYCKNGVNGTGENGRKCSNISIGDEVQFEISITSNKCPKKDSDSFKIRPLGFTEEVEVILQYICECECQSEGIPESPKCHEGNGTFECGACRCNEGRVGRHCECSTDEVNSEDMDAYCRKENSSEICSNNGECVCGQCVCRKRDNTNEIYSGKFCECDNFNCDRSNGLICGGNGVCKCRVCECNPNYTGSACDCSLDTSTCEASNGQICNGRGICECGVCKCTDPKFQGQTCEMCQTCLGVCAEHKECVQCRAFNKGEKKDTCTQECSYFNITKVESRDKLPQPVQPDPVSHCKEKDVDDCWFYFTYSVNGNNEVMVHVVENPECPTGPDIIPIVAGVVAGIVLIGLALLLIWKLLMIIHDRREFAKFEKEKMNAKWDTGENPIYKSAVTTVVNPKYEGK
Assay: Affinity for alpha4-beta1 integrin from HL60 cell lysate
Assay type: cell-based, HL-60

SMILES | IC50 [nM]
CC(=O)N1CSC[C@@H]1C(=O)N[C@@H](Cc1ccc(OCc2ccccc2C(F)(F)F)cc1)C(=O)O | 15
CC(=O)N1CSC[C@H]1C(=O)N[C@@H](Cc1ccc(OCc2ccccc2)cc1)C(=O)O | 220
CC(=O)N1CSC[C@@H]1C(=O)N[C@@H](Cc1ccc(OCc2c(Cl)cc(Cl)cc2Cl)cc1)C(=O)O | 9
COc1ccc(C[C@H](NC(=O)[C@@H]2CSCN2C(C)=O)C(=O)O)cc1 (Ac-[Thz]-Tyr(Me)-OH) | 310
CC(=O)N1CSC[C@@H]1C(=O)N[C@@H](Cc1ccc(OC(=O)C23CC4CC(CC(C4)C2)C3)cc1)C(=O)O | 12
CC(=O)N1CSC[C@H]1C(=O)N[C@@H](CSCCCNC(=O)C12CC3CC(CC(C3)C1)C2)C(=O)O | 90
CC(=O)N1CSC[C@@H]1C(=O)N[C@@H](Cc1ccc(OC(=O)c2ccccc2)cc1)C(=O)O | 4
CC(=O)N1CSC[C@@H]1C(=O)N[C@@H](Cc1ccc(OCc2c(F)cccc2F)cc1)C(=O)O | 3
COc1cccc(OC)c1COc1ccc(C[C@H](NC(=O)[C@H]2CSCN2C(C)=O)C(=O)O)cc1 | 2
CC(=O)N1CSC[C@@H]1C(=O)N[C@@H](Cc1ccc(OCc2c(Cl)cccc2Cl)cc1)C(=O)O | 5
CC(=O)N1CSC[C@@H]1C(=O)N[C@@H](Cc1ccc(OCc2ccccc2)cc1)C(=O)O | 25
CC(=O)N1CSC[C@@H]1C(=O)N[C@@H](Cc1ccc(OCc2cc(Cl)cc(Cl)c2)cc1)C(=O)O | 17
CC(=O)N1CSC[C@H]1C(=O)N[C@@H](Cc1ccccc1)C(=O)O (Ac-[Thz]-Phe-OH) | 360
CC(=O)N1CSC[C@H]1C(=O)N[C@@H](Cc1ccc(O)cc1)C(=O)O (Ac-[Thz]-Tyr-OH) | 2740
CC(=O)N1CSC[C@@H]1C(=O)N[C@@H](Cc1ccc(OC(=O)c2c(Cl)cccc2Cl)cc1)C(=O)O | 6

Biological target: T2, Integrin alpha-4/beta-1
Assay: Inhibition of alpha4-beta1 VCAM binding in Jurkat cell adhesion assay
Assay type: cell-based

SMILES | IC50 [nM]
CC(=O)N1CSC[C@@H]1C(=O)N[C@@H](Cc1ccc(OCc2ccccc2C(F)(F)F)cc1)C(=O)O | 170
CC(=O)N1CSC[C@H]1C(=O)N[C@@H](Cc1ccc(OCc2ccccc2)cc1)C(=O)O | 19500
CC(=O)N1CSC[C@@H]1C(=O)N[C@@H](Cc1ccc(OCc2c(Cl)cc(Cl)cc2Cl)cc1)C(=O)O | 35
COc1ccc(C[C@H](NC(=O)[C@@H]2CSCN2C(C)=O)C(=O)O)cc1 (Ac-[Thz]-Tyr(Me)-OH) | 76600
CC(=O)N1CSC[C@@H]1C(=O)N[C@@H](Cc1ccc(OC(=O)C23CC4CC(CC(C4)C2)C3)cc1)C(=O)O | 140
CC(=O)N1CSC[C@H]1C(=O)N[C@@H](CSCCCNC(=O)C12CC3CC(CC(C3)C1)C2)C(=O)O | 8040
CC(=O)N1CSC[C@@H]1C(=O)N[C@@H](Cc1ccc(OC(=O)c2ccccc2)cc1)C(=O)O | 170
CC(=O)N1CSC[C@@H]1C(=O)N[C@@H](Cc1ccc(OCc2c(F)cccc2F)cc1)C(=O)O | 60
COc1cccc(OC)c1COc1ccc(C[C@H](NC(=O)[C@H]2CSCN2C(C)=O)C(=O)O)cc1 | 40
CC(=O)N1CSC[C@@H]1C(=O)N[C@@H](Cc1ccc(OCc2c(Cl)cccc2Cl)cc1)C(=O)O | 34
CC(=O)N1CSC[C@@H]1C(=O)N[C@@H](Cc1ccc(OCc2ccccc2)cc1)C(=O)O | 1480
CC(=O)N1CSC[C@@H]1C(=O)N[C@@H](Cc1ccc(OCc2cc(Cl)cc(Cl)c2)cc1)C(=O)O | 150
CC(=O)N1CSC[C@H]1C(=O)N[C@@H](Cc1ccccc1)C(=O)O (Ac-[Thz]-Phe-OH) | 35200
CC(=O)N1CSC[C@H]1C(=O)N[C@@H](Cc1ccc(O)cc1)C(=O)O (Ac-[Thz]-Tyr-OH) | 263000
CC(=O)N1CSC[C@@H]1C(=O)N[C@@H](Cc1ccc(OC(=O)c2c(Cl)cccc2Cl)cc1)C(=O)O | 24

Biological target: Integrin alpha-IIb/beta-3 (Homo sapiens, UniProt P05106+P08514)
Sequence (P05106 27-788 limits assumed): as the sequence (P05106 27-788 limits assumed) above
Sequence (P08514 32-887 limits assumed): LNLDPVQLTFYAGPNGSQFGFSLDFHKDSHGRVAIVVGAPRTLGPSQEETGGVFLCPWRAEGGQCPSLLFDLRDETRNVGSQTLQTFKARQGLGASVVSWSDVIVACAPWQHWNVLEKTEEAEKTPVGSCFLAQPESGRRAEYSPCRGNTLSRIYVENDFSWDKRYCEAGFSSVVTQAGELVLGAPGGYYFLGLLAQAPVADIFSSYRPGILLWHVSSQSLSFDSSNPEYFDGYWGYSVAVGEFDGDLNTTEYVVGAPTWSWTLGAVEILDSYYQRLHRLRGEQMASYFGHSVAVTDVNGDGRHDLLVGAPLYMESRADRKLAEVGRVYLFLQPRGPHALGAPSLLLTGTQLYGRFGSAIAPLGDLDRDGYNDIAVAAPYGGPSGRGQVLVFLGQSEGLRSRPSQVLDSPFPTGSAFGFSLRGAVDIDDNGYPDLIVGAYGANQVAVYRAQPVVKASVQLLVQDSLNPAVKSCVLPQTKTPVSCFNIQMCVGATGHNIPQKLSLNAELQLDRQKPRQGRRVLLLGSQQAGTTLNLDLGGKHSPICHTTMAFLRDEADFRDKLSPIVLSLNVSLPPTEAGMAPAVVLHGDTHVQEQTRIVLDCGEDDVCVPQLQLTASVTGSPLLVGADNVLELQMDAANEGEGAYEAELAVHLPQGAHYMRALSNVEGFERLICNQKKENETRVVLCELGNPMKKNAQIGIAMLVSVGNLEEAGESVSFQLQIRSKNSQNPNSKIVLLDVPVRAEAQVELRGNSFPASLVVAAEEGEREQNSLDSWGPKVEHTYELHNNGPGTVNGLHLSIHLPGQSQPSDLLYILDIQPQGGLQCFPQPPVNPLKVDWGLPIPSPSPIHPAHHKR
Sequence (P08514 891-1039 limits assumed): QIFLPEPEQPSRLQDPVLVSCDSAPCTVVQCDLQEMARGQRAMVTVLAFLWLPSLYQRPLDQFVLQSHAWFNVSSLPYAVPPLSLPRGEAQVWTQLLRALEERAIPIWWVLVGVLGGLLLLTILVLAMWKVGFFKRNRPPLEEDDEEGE
Assay: The antagonist activity was evaluated by alphaIlb-beta3 cell assay
Assay type: functional

SMILES | IC50 [nM]
CC(=O)N1CSC[C@@H]1C(=O)N[C@@H](Cc1ccc(OCc2c(Cl)cccc2Cl)cc1)C(=O)O | > 400000
